The values below come from patent publication US10105367B2, “Therapeutic thiophene-, furan-, and pyridine-fused azolopyrimidin-5-(6h)-ones” (Dart Neuroscience (Cayman) Ltd., priority 2012, dated 2018).

The target of the first assay is human PDE1B (Homo sapiens (Human), UniProt Q01064). The assay can be described thus: PDE1B inhibitory assay (IMAP TR-FRET). Particulars: PDE1B pIC50, negative log of half-maximal molar inhibitory concentration; 200 nM FAM-cAMP, Calmodulin, CaCl2.
The IC50 is the concentration that inhibits the measured activity by half. The low end stands for greater potency, the high end for weaker potency. `COc1ccc(Cn2c(=O)n3ncnc3c3c(C)c(CN4C[C@@H](C)N[C@@H](C)C4)sc32)cc1` [Example 72] had an IC50 of 0.1 to 1 µM. On the same count and under the same terms, the figure for `COc1ccc(Cn2c(=O)n3ncnc3c3c(C)c(Br)sc32)cc1` [Example 76, 8-Bromo-6-(4-methoxybenzyl)-9-methylthieno[3,2-e][1,2,4]triazolo[1,5-c]pyrimidin-5(6H)-one] is 0.1 to 1 µM; for `COc1ccc(Cn2c(=O)n3ncnc3c3c(C)c(CO)sc32)cc1` [Example 77, 8-(Hydroxymethyl)-6-(4-methoxybenzyl)-9-methylthieno[3,2-e][1,2,4]triazolo[1,5-c]pyrimidin-5(6H)-one] it is 0.1 to 1 µM. `COc1ccc(Cn2c(=O)n3ncnc3c3c(CN4C[C@@H](C)O[C@@H](C)C4)csc32)cc1` [Example 78, 9-(((2S,6R)-2,6-Dimethylmorpholino)methyl)-6-(4-methoxybenzyl)thieno[3,2-e][1,2,4]triazolo[1,5-c]pyrimidin-5(6H)-one] yielded a half-inhibitory concentration (IC50) of 0.1 to 1 µM.

Regarding `Cc1oc2c(c1C)c1ncnn1c(=O)n2Cc1ccc(Cl)cc1` [Example 79, 6-(4-Chlorobenzyl)-8,9-dimethylfuro[3,2-e][1,2,4]triazolo[1,5-c]pyrimidin-5(6H)-one], the half-maximal inhibitory concentration (IC50) was 0.1 to 1 µM. On the same count and under the same terms, the figure for `O=c1n(Cc2ccccc2Cl)c2sc3c(c2c2ncnn12)CCCC3` [Example 81] is 1 to 10 µM; for `CC1(C)Cc2c(sc3c2c2ncnn2c(=O)n3Cc2ccc(Cl)cc2)CO1` [Example 83] it is 0.1 to 1 µM; for `O=c1n(Cc2ccccc2)c2sc3c(c2c2ncnn12)CCCC3` [Example 84] it is 0.1 to 1 µM. Still for that read-out and setting: with `O=c1n(Cc2cccc(Cl)c2)c2sc3c(c2c2ncnn12)CCCC3` [Example 85] the figure was 0.1 to 1 µM.

With `O=c1n(Cc2ccc(-c3ccccc3)cc2)c2sc3c(c2c2ncnn12)CCCC3` [Example 86], the IC50 was 1 to 10 µM.

On to `O=c1n(Cc2ccc(Cl)cc2)c2sc3c(c2c2ncnn12)CCOC3` [Example 87], for which the half-maximal inhibitory concentration (IC50) lay within 0.1 to 1 µM. Regarding `Cc1ccc(Cn2c(=O)n3ncnc3c3c4c(sc32)COCC4)cc1` [Example 88], the IC50 fell in the range of 0.1 to 1 µM.

`O=c1n(Cc2ccc(C(F)(F)F)cc2)c2sc3c(c2c2ncnn12)CCOC3` [Example 89] had a 50% inhibitory concentration (IC50) of 1 to 10 µM. The same measure, in the same setting: with `O=c1n(Cc2ccc(Cl)c(Cl)c2)c2sc3c(c2c2ncnn12)CCOC3` [Example 91] the figure was 0.1 to 1 µM. Still for that read-out and setting: with `O=c1n(Cc2ccc(F)cc2)c2sc3c(c2c2ncnn12)CCOC3` [Example 92] the figure was 1 to 10 µM. For `O=c1n(Cc2ccc(Cl)c(F)c2)c2sc3c(c2c2ncnn12)CCOC3` [Example 93], the IC50 fell in the range of 0.1 to 1 µM. The same measure, in the same setting: the figure for `O=c1n(Cc2ccc(Cl)cc2F)c2sc3c(c2c2ncnn12)CCOC3` [Example 94] is 0.1 to 1 µM; for `COc1ccc(Cn2c(=O)n3ncnc3c3c4c(sc32)COCC4)cc1F` [Example 95] it is 0.1 to 1 µM; for `O=c1n(Cc2ccc(OC(F)(F)F)cc2)c2sc3c(c2c2ncnn12)CCOC3` [Example 96] it is 1 to 10 µM. `CCOc1ccc(Cn2c(=O)n3ncnc3c3c4c(sc32)COCC4)cc1` [Example 97] displayed an IC50 of 1 to 10 µM. The same measure, in the same setting: the figure for `O=c1n(Cc2ccc(Cl)cc2)c2sc3c(c2c2ncnn12)CCNC3` [Example 99, 6-(4-Chlorobenzyl)-8,9,10,11-tetrahydropyrido[4′,3′:4,5]thieno[3,2-e][1,2,4]triazolo[1,5-c]pyrimidin-5(6H)-one] is 1 to 10 µM; for `COc1ccc(Cn2c(=O)n3ncnc3c3c4c(sc32)NCCC4)cc1OC` [Example 100] it is 1 to 10 µM.

In turn, `O=c1n(Cc2ccc(Cl)cc2)c2sc3c(c2c2ncnn12)CCN(CC(F)(F)F)C3` [Example 107] came in with an IC50 of 0.1 to 1 µM.

The assay is the same for the next values; noted with them: negative log of half-maximal molar inhibitory concentration; 200 nM FAM-cAMP, Calmodulin, CaCl2.
On to `COc1ccc(Cn2c(=O)n3ncnc3c3c(C)c(CN(C)CC4CCCO4)sc32)cc1` (centres unmarked) [Example 54], for which the “PDE1B pIC50” value is over 7. Still for that read-out and setting: the figure for `COc1ccc(Cn2c(=O)n3ncnc3c3c(C)c(CN4C[C@@H](C)O[C@@H](C)C4)sc32)cc1` [Example 55] is over 7; for `COc1ccc(Cn2c(=O)n3ncnc3c3c(C)c(CN4Cc5ccccc5C4)sc32)cc1` [Example 56] it is over 7; for `COc1ccc(Cn2c(=O)n3ncnc3c3c(C)c(CNC4CC4)sc32)cc1` [Example 57] it is over 7. Same read-out and setting: with `COC[C@@H]1CCCN1Cc1sc2c(c1C)c1ncnn1c(=O)n2Cc1ccc(OC)cc1` [Example 58] the figure was over 7; with `COc1ccc(Cn2c(=O)n3ncnc3c3c(C)c(CN(C)CC4CCOC4)sc32)cc1` (centres unmarked) [Example 59], over 7. The same measure, in the same setting: the figure for `COc1ccc(Cn2c(=O)n3ncnc3c3c(C)c(CN4CCCOCC4)sc32)cc1` [Example 61] is over 7; for `COc1ccc(Cn2c(=O)n3ncnc3c3c(C)c(CN4CCN(S(C)(=O)=O)CC4)sc32)cc1` [Example 63] it is over 7.

In the case of `COc1ccc(Cn2c(=O)n3ncnc3c3c(C)c(CN4CCN(C(C)C)CC4)sc32)cc1` [Example 64], the “PDE1B pIC50” value was over 7.

Consider `COc1ccc(Cn2c(=O)n3ncnc3c3c(C)c(CN4CC5CC4CO5)sc32)cc1` (centres unmarked) [Example 65], for which the “PDE1B pIC50” value was over 7.

`CCN1CCN(Cc2sc3c(c2C)c2ncnn2c(=O)n3Cc2ccc(OC)cc2)CC1=O` [Example 66]: the “PDE1B pIC50” value is listed as over 7. On the same count and under the same terms, with `COc1ccc(Cn2c(=O)n3ncnc3c3c(C)c(CN4CC5CCC(C4)O5)sc32)cc1` [Example 67] the figure was over 7; with `CCC1CN(Cc2sc3c(c2C)c2ncnn2c(=O)n3Cc2ccc(OC)cc2)CCO1` (centres unmarked) [Example 68], over 7. The same measure, in the same setting: with `COc1ccc(Cn2c(=O)n3ncnc3c3c(C)c(CN4CCOC(C)(C)C4)sc32)cc1` [Example 69] the figure was over 7; with `COc1ccc(Cn2c(=O)n3ncnc3c3c(C)c(CN4CCOC(C)C4)sc32)cc1` (centres unmarked) [Example 70], over 7. Still for that read-out and setting: with `COc1ccc(Cn2c(=O)n3ncnc3c3c(C)c(CN4CCOCC4C)sc32)cc1` (centres unmarked) [Example 71] the figure was over 7; with `COc1ccc(Cn2c(=O)n3ncnc3c3c(C)c(CN4CCN(C)C(C)C4)sc32)cc1` (centres unmarked) [Example 73], over 7; with `COc1ccc(Cn2c(=O)n3ncnc3c3c(C)c(CN4CCN(C)C(C)(C)C4)sc32)cc1` [Example 74], over 7. For `COc1ccc(Cn2c(=O)n3ncnc3c3c(C)c(CN4CCN5CCC[C@H]5C4)sc32)cc1` [Example 75], the “PDE1B pIC50” value is on record as over 7. Take `COc1ccc(Cn2c(=O)n3ncnc3c3c4c(sc32)CN(C(=O)OC(C)(C)C)CC4)cc1` [Example 80, tert-Butyl 6-(4-methoxybenzyl)-5-oxo-5,6,10,11-tetrahydropyrido[4′,3′:4,5]thieno[3,2-e][1,2,4]triazolo[1,5-c]pyrimidine-9(8H)-carboxylate]: the “PDE1B pIC50” value is reported as over 7. Same read-out and setting: the figure for `COc1ccc(Cn2c(=O)n3ncnc3c3c4c(sc32)COCC4)cc1` [Example 90] is over 7; for `COc1c(F)cc(Cn2c(=O)n3ncnc3c3c4c(sc32)COCC4)cc1F` [Example 98] it is under 5; for `COc1ccc(Cn2c(=O)n3ncnc3c3c4c(sc32)CN(Cc2nnc(C)s2)CC4)cc1` [Example 108] it is over 7. Same read-out and setting: with `COc1ccc(Cn2c(=O)n3ncnc3c3c4c(sc32)CN(CC2CC2)CC4)cc1` [Example 110] the figure was over 7.
